Reference: patent US12133878B2, “Pharmaceutical compositions having a selected release duration” (Foresee Pharmaceuticals Co., Ltd., priority 2017, dated 2024)
Counter-ions that a name gives are not always drawn.

How the values were obtained:
[1] = for molecular weight of PLGA compared with blank control: both 4° C. and RT, after 12 months
Protocol: Poly(DL-lactide-co-glycolide) (PLGA) of an 85/15 ratio of lactide to glycolide (DLPLG85/15, IV: 0.28) with a lauryl ester end group was dissolved in N-methyl-2-pyrrolidone (NMP) to give a 50% solution by weight. […] The injectable compositions were filled into 1.2 mL polypropylene syringes with luer-lock tips. Then the pre-filled syringes were sealed using luer-lock caps. The capped syringes were packaged in a container and sealed in a plastic bag under vacuum and then stored at 4° C. and room temperature (˜22° C.) for up to 18 months. The injectable composition was sampled at 24 h, 1, 2, 3, 6, 12, and 18-month time points. Purity of leuprolide in the sample was determined by HPLC. Molecular weight of the polymer was determined by gel permeation chromatography (GPC) using polystyrene standards with known molecular weights.

[2] = In vitro release of leuprolide in PBS at pH 7.4 at 37° C. (HPLC); format: physicochemical; conditions: for release of leuprolide completed: Example 5, FIG. 3, PLA 16,000 Dalton 60% in NMP, about 12% leuprolide, gamma 25 kGy
Protocol: The product is supplied in 2 separate syringes with the leuprolide acetate in one syringe and the polymer solution in the other. The two are mixed immediately prior to injection. The polymer solution contains a 50% 8515PLGA polymer solution in NMP. The molecular weight of the polymer is about 20k dalton. […] The leuprolide mesylate was prepared from leuprolide acetate by ion exchange lyophilization process and contains a small amount of acetate. The formulation was mixed and stored in a single syringe. Another formulation was made with LAMS using a PLA polymer with a molecular weight of 15k dalton (PLA-1) and a polydispersity index (PDI) of 1.8. This formulation was also mixed and stored in a single syringe. […] The release sample was taken at predefined time points and analyzed by HPLC.
The in vitro release of leuprolide was tested from these two formulations. The in vitro release test was performed in PBS at pH 7.4 at 37° C. and the release of leuprolide over time was measured by HPLC. Briefly, an aliquot of the formulation (about 100 mg) was injected into 3 mL phosphate buffer saline solution at pH 7.4 with 0.1% sodium azide at 37° C. The receiving fluid was replaced at predefined time points with fresh buffer solution, and the removed buffer solution diluted 2-fold with phosphate buffer at pH 7.4 was analyzed for drug concentration by HPLC. The amount released at each time point was calculated.
The in vitro release of leuprolide was tested from several kits of Eligard® 45 mg. These kits contain 1 syringe with leuprolide acetate (LAAc) and one syringe of polymer solution (PLGA8515 in NMP). PLGA8515 used here was prepared with hexanediol as an initiator and has a molar ratio of DL-lactide to Glycolide=85:15. The PLGA8515 polymer has one hydroxyl end group at both ends of the polymer chain. The two syringes are connected and the contents are mixed immediately prior to injection.
Formulations were made with leuprolide mesylate (LAMS(1.6)) in order to achieve the delivery of leuprolide for a period of 3 months. The leuprolide mesylate was prepared from leuprolide formate by salt exchange lyophilization process and contains a small amount of formic acid. […] The removed release media was analyzed by HPLC for leuprolide content.
The in vitro release of leuprolide was tested from these two formulations. The in vitro release test was performed in PBS at pH 7.4 at 37° C. and the release of leuprolide was measured by HPLC over time. […]
Formulations designed for a release duration of one month were made with a 50:50PLGA polymer (MW 50k, PDI 4.0) in NMP using LAMS with a methane sulfonic acid to leuprolide ratio of 1.6:1 and 2.0:1. The formulations were stored at 25° C. and the peptide purity and polymer molecular weight were measured over time. […]

In the case of `CCNC(=O)[C@@H]1CCCN1C(=O)[C@H](CCCNC(=N)N)NC(=O)[C@H](CC(C)C)NC(=O)[C@@H](CC(C)C)NC(=O)[C@H](Cc1ccc(O)cc1)NC(=O)[C@H](CO)NC(=O)[C@H](Cc1c[nH]c2ccccc12)NC(=O)[C@H](Cc1c[nH]cn1)NC(=O)[C@@H]1CCC(=O)N1` [leuprolide acetate, reference compound], the “molecular weight of PLGA decreased, comparing to blank control” value ([1]; 4° C., after 6 months) is reported as “more than 10%”, the “release of leuprolide completed” value [2] is reported as ~240 days and the “in vitro release lasts longer versus leuprolide mesylate” value ([2]; Example 5, same PLA/NMP solution) is reported as “more than 60 days”.

In the case of `CCNC(=O)[C@@H]1CCCN1C(=O)[C@H](CCCNC(=N)N)NC(=O)[C@H](CC(C)C)NC(=O)[C@@H](CC(C)C)NC(=O)[C@H](Cc1ccc(O)cc1)NC(=O)[C@H](CO)NC(=O)[C@H](Cc1c[nH]c2ccccc12)NC(=O)[C@H](Cc1c[nH]cn1)NC(=O)[C@@H]1CCC(=O)N1` [leuprolide hydrochloride], the “molecular weight of PLGA compared with blank control” value [1] is reported as “the same as that of the blank control”.

For leuprolide mesylate, the “molecular weight of PLGA compared with blank control” value [1] was “the same as that of the blank control”, the “release of leuprolide completed” value [2] was ~180 days and the leuprolide released ([2]; Example 6, FIG. 4, polymer syringe from the Eligard 45 mg kit, at 112 days) was > 99.
